Read-outs that look alike come from different tables or passages of the source.
Key:
[1] = tested on: P. falciparum strain FcB1; test: In vitro antiplasmodial activity, SYBR Green I-based fluorescence assay; type: cell-based, Plasmodium falciparum
Experimental: The in vitro anti-malarial activity was investigated using the SYBR Green I-based fluorescence assay. The asexual intra-erythrocytic stage of P. falciparum laboratory strain FcB1 (chloroquine-resistant strain) was maintained in RPMI 1640 medium containing l-glutamine 200 µM, Hepes 25 mM and 5% human serum (Etablissement Français du Sang—EFS, Toulouse, France). For anti-malarial drug assays, stock solutions of compounds were diluted serially in RPMI 1640 culture medium to test final concentrations between 0.001 and 1 µg/mL in triplicates in a 96-well plate. The final concentration of DMSO was 0.5%. A suspension of sorbitol-synchronized, infected red blood cells (iRBCs) was adjusted to 1% parasitemia and 2% hematocrit in complete medium and added to the wells. Negative controls were prepared with a suspension of iRBCs and 0.5% DMSO. Chloroquine was used as the positive control. Test plates were incubated at 37 °C for 48 h. Afterwards, 100 μL SYBR Green I fluorescent lysis buffer were added to each well and incubated in a dark place at room temperature for 2 h. Fluorescence data were acquired using a fluorescence plate reader (BMG Fluostar Galaxy Labtech) with excitation and emission wavelengths at 485 nm and 518 nm, respectively. The fluorescence values (after subtraction of the background fluorescence of the non-parasitized RBCs) were plotted against the log of the drug concentration, and analyzed by non-linear regression (sigmoidal dose response/variable slope equation) to yield the IC50 (50% inhibitory concentration) that served as a measure of the anti-malarial activity.

P. chabaudi chabaudi = test: Four-days suppressive test, P. chabaudi chabaudi mice model (uncomplicated malaria); type: in vivo, Plasmodium chabaudi chabaudi in Swiss mice; conditions: chloroquine 10 mg/kg intraperitoneal D0 to D3, D8
Experimental: As previously described, the four-days suppressive standard test described by Knight and Peters was used to evaluate antimalarial activity of Compounds 1 and 3. P. chabaudi chabaudi (Pcc) and P. berghei ANKA (PbA) infections in Swiss mice were used as experimental models for uncomplicated and cerebral malaria, respectively. […] On the first day (D0), mice were inoculated intraperitoneally with 0.2 mL of infected blood containing about 1 × 10^6 parasitized erythrocytes. […] All mice groups were treated similarly for four consecutive days (D0–D3). Weight, parasitemia and survival were followed daily. To follow peripheral parasite density, thin blood smears were made daily from tail blood from D3 to D14. Blood smears were fixed with methanol and stained with a fast-acting variation of the May–Grünwald Giemsa staining (RAL 555 kit, RAL diagnostics). Average percentage chemosuppression was calculated at D8 for both infection models as ((A − B)/A) × 100 where A is the average percentage parasitemia in the negative control group and B is the average percentage parasitemia in the test group. Survival was monitored twice daily. […]

[2] = Cytotoxic evaluation on the Hela cell line (MTT assay); type: cell-based; conditions: human, Hela cells
Experimental: The evaluation of the tested molecules’ cytotoxicity on the Hela cell line was conducted according to the method of Mosman with slight modifications. Briefly, cells (1 × 10^5 cells/mL) in 100 µL of complete medium, (MEM supplemented with 10% fetal bovine serum, 2 mM L-glutamine and antibiotics (100 U/mL penicillin and 100 µg/mL streptomycin) were seeded into each well of the 96-well plates and incubated at 37 °C and 5% CO2. After a 24 h incubation, 100 µL of medium with various product concentrations and appropriate controls were added and the plates were incubated for 72 h at 37 °C and 5% CO2. Each plate-well was then microscope-examined to detect possible precipitate formation before the medium was aspirated from the wells. MTT solution (100 µL, 0.5 mg/mL in RPMI) was then added to each well. Cells were incubated for 2 h at 37 °C and 5% CO2. After this time, the MTT solution was removed and DMSO (100 µL) was added to dissolve the resulting formazan crystals. Plates were shaken vigorously (300 rpm) for 5 min. The absorbance was measured at 570 nm with a microplate spectrophotometer (Eon BioTek). DMSO was used as blank and doxorubicin (purchased from Sigma Aldrich) as positive control. CC50 were calculated by non-linear regression analysis processed on dose response curves, using TableCurve 2D V5 software (San Jose, CA, USA). CC50 values represent the mean value calculated from three independent experiments.

NQO2 = target: T1, NQO2 (Homo sapiens, UniProt P16083); test: EPR measurement of free radicals (ROS) produced after metabolism by NQO2; type: biochemical; conditions: for radical production after reduction by NQO2: EPR with DMPO spin trap; for ROS after NQO2 Reduction: purified NQO2 20 µg/mL, compound 125 µM, BNAH 1 mM, DMPO 125 mM, grades - to + + + + +
T1 construct: The experiments were conducted with purified enzyme NQO2 (20 µg/mL)
T1 sequence (P16083 1-231): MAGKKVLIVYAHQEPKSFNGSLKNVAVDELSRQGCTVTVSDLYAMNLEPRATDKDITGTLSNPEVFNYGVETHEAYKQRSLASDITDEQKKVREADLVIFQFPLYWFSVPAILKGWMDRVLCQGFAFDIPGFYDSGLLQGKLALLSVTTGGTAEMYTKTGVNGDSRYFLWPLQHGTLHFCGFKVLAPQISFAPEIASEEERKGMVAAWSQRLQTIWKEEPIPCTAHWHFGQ
Experimental: As in previous work, we used an indirect assay to characterize the substrates. […] Using the capacity of NQO2 to reduce quinones into hydroquinones or quinols, we incubated the substrate candidates with the enzyme and its co-substrate, a synthetic hydride donor, N-benzyldihydronicotinamide. […] Thus, using an EPR-based assay, it was possible to evaluate the potency of the process by quantifying those bursts by measuring for the presence of free radicals. The rationale of the process was based on the simple idea that such substrates would generate bursts of ROS, which are particularly toxic for infected red cells.
We measured the ability of the selected compounds to produce superoxide radicals during the redox cycle of NQO2 by EPR spectroscopy. The following compounds were used as molecular tools: Menadione (Figure 1) as a reference compound and NQO2 substrate, S29434 as a specific NQO2 inhibitor [17] and dimethyl-pyrroline-N-oxide (DMPO) as a spin trap reagent to characterize ROS.
The experiments were conducted with purified enzyme NQO2 (20 µg/mL), DMPO (125 mM), tested compounds (125 µM) and BNAH (1 mM). For inhibition assays, we added S29434 (30 µM). All analyses were performed at room temperature. EPR spectra were recorded with a Bruker EMX-8/2.7 (9.86 GHz) with a high-sensitivity cavity (4119/HS 0205) and a gaussmeter (Bruker, Wissembourg, France), at X-band. For analyses, we used a flat quartz cell, FZKI160-5 × 0.3 mm (Magnettech, Berlin, Germany). We performed data processing and spectrum acquisition with WINEPR software (Bruker). Scanning parameters were: Number of scans, 5; magnetic field, 3460–3560 G; sweep width, 100 G; scan rate, 1.2 G/s; modulation amplitude, 1 G; sweep time, 83.88 s; time constant, 40.96 ms; modulation frequency, 100 kHz; and microwave power, 20 mW. The EPR spectra were analyzed as reported previously. The EPR spectrum was presented with the magnetic field on the x-axis in gauss (g) and the intensity of the peaks on the y-axis in arbitrary units (a.u.).

[3] = Plasmodium falciparum, FCB1, 48 h, P. falciparum FcB1 (chloroquine-resistant strain), 48 h, read-out: IC50

| Compound | IC50 ([1]; Plasmodium falciparum, FCB1, 48 h) | % inhibition of parasite density at D8 (P. chabaudi chabaudi) | TI (Therapeutic Index = CC50/IC50) [1] | IC50 [1, 3] | CC50 at 72 h [2] | radical production after reduction by NQO2 (NQO2) | IC50 ([1]; P. falciparum FcB1 (chloroquine-resistant strain), 48 h, read-out: IC50) | CC50 values fold higher than the IC50 value [1] | ROS after NQO2 Reduction (NQO2; EPR, key not given) | radical production after adding the specific NQO2 inhibitor S29434 (NQO2; EPR, S29434 30 µM) | ROS after Inhibition of NQO2 with S29434 (NQO2; EPR, as above plus S29434 30 µM, grades - to + +, key not given) |
| --- | --- | --- | --- | --- | --- | --- | --- | --- | --- | --- | --- |
| CCN(CC)CCCC(C)Nc1ccnc2cc(Cl)ccc12 (stereo not shown) [Chloroquine, chloroquine, reference compound] | 0.164 ± 0.055 nM | 98.2% |  |  |  |  |  |  |  |  |  |
| COc1ccc2c(c1)C1=C(CCC(C)(C)O1)C(=O)C2=O [Compound 7] |  |  | 2.21 | 753 ± 484 nM | 1660 ± 368 nM | no radicals were detected |  |  |  |  |  |
| COc1ccc2c(c1)C1=C(C(=O)C2=O)C(C)(C)C(C)O1 (stereo not shown) [Compound 2] |  |  | 2.15 | 630 to 850 nM | 1250 ± 160 nM | no radicals were detected | 580 ± 503 nM |  |  |  |  |
| COc1ccc2c(c1)C(=O)C1=C(OC(C)C1(C)C)C2=O (stereo not shown) [Compound 5] |  |  | 9.81 | 1520 ± 853 nM | 14900 ± 3230 nM | no radicals were detected |  | 8-9 fold |  |  |  |
| CC1=CC(=O)c2ccccc2C1=O [Menadione, menadione, reference compound] |  |  |  |  |  |  |  |  | + + + + + |  |  |
| COc1ccc2c(c1)C(=O)C1=C(C2=O)C(C)(C)C(C)O1 (stereo not shown) [Compound 4] |  |  | 8.53 | 1380 ± 627 nM | 11800 ± 2200 nM | produced radicals |  | 8-9 fold | + + + | decreased |  |
| COc1cccc2c1C(=O)c1c(O)c3c(c(O)c1C2=O)C[C@@](O)(C(=O)CO)C[C@@H]3O[C@H]1C[C@H](N)[C@H](O)[C@H](C)O1 [Doxorubicin, doxorubicin, reference compound] |  |  |  |  | 311 ± 478 nM |  |  |  |  |  |  |
| COc1ccc2c(c1)C(=O)C1=C(OC(C)(C)CC1)C2=O [Compound 6] |  |  | >0.94 | 19500 ± 7090 nM | > 18400 nM | produced radicals |  |  | + + + |  | + + |
